Values of other authors in patent US7273620B1, “Triggered release of liposomal drugs following mixing of cationic and anionic liposomes” (University of British Columbia, priority 2002, dated 2007).

Details: from LUV; depends on acyl chain length of ceramide anchor

1-O-(2′-(ω-methoxypolyethylene-glycol)succinoyl)-2-N-myristoylsphyngosine [PEG-CerC14]
dissociation rate of PEG-Ceramide: 1.2 h
